Test: gradient 5% acetonitrile 3 min, to 50% in 2 min, to 85% in 15 min, held 3 min, 100 µL/min
Conditions: column: Zorbax Extend-C18 2.1 x 50 mm; eluents: water / acetonitrile, 0.1% formic acid
In short: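 Retention times come from adduct peaks that were picked computationally and then checked by hand. The standards, pure and pooled in mixtures of ~100 molecules, were run on a Zorbax Extend-C18 column (2.1 × 50 mm, 1.8 μm) at 100 μL/min with water and acetonitrile, each with 0.1% formic acid. Detection was by quadrupole time-of-flight mass spectrometry in positive and negative ionization mode, with a dead volume of 40 μL and a dwell volume of 900 μL.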

`COc1cccc(NS(=O)(=O)c2cc(-c3[nH]ncc3C(=O)N3CCCC3)oc2C)c1` gave an RP-LC retention time of 693 s.

In the case of `O=C(Nc1ccc(F)cc1)C1CC(=O)N(CCc2c[nH]c3ccc(Cl)cc23)C1` (centres undefined), the RP-LC retention time is reported as 871 s.

`Cc1noc(C)c1Cc1ccc(C(=O)NCCc2noc(C3CC3)n2)o1` showed an RP-LC retention time of 745 s.

`O=C(Nc1cccc(C(=O)NCCC2=CCCCC2)c1)C1=CSCCO1` gave an RP-LC retention time of 925 s.

`CC(C)OCCCNC(=O)CN1C(=O)CCn2nc(-c3cn(C)c4ccccc34)cc21` gave an RP-LC retention time of 738 s.

`CCc1noc(NC(C)=O)c1-c1ccc(C)c(S(=O)(=O)Nc2ccc(Cl)cc2F)c1` gave an RP-LC retention time of 866 s.

With `Cc1nc([C@@H]2CN(C(=O)c3sccc3C)C[C@H]2C(N)=O)n[nH]1` the RP-LC retention time was 552 s.

Compound `Cc1ccc(Cn2c(C)c(CNCCc3ccco3)c(C(=O)O)c2C)cc1` has an RP-LC retention time of 630 s.

Work on `O=C(c1ccccc1)N1CCC(n2c(-c3ccco3)nc3cccnc32)C1` (centres undefined) yielded an RP-LC retention time of 716 s.

With `O=C(CC1CCN(C(=O)c2ccc3oc(-c4ccccc4)nc3c2)CC1)NCc1ccco1` the RP-LC retention time was 793 s.

`O=C(N[C@H]1C[C@@H]2C[C@H]1CN2C(=O)c1ccc(OC(F)(F)F)cc1)c1ccccc1` gave an RP-LC retention time of 786 s.

In the case of `O=C(C1CCN(c2nnc(-n3cccc3)s2)CC1)N1CCN(c2ccccn2)CC1`, the RP-LC retention time is reported as 640 s.

`COc1ccc(-c2csc(NC(=O)CSc3nc4c(cc3C#N)CCC4)n2)cc1` gave an RP-LC retention time of 1120 s.

With `CCOC(=O)C1CCN(C(=O)C(C)n2c(=O)c(C(F)(F)F)nc3ccccc32)CC1` (centres undefined) the RP-LC retention time was 921 s.

`Cn1cccc1C(=O)C(=O)N1CCN(c2ccc(F)cc2)CC1` showed an RP-LC retention time of 819 s.

For `Cc1ccccc1Cn1nc2ccc(S(=O)(=O)N3CCCCC3)cn2c1=O`, the RP-LC retention time was 813 s.

Work on `CCC(=O)N1CCc2cc(-c3ccc(C(=O)NCCN4CCN(CC)CC4)cc3)ccc21` yielded an RP-LC retention time of 604 s.

With `COc1ccc(Cn2nc3c(S(=O)(=O)N4CCc5ccccc5C4)cccn3c2=O)cc1F` the RP-LC retention time was 945 s.

In the case of `CCCN(CC1CCOC1)C(=O)Nc1cc(C)ccc1C` (centres undefined), the RP-LC retention time is reported as 796 s.

Work on `O=C(CCc1c(-c2ccccc2)nc2ccccn12)Nc1ccc(Cl)cc1F` yielded an RP-LC retention time of 715 s.

Work on `O=C(NC1CCCCC1N1C(=O)CSC1=O)c1cc(Cl)ccc1Cl` (centres undefined) yielded an RP-LC retention time of 810 s.

With `O=C(CCNc1cnc2cnccn12)NCc1ccc2c(c1)OCO2` the RP-LC retention time was 564 s.

Work on `COc1ccc(CC(=O)NC(C(=O)Nc2nc3ccccc3[nH]2)C(C)C)cc1Cl` (centres undefined) yielded an RP-LC retention time of 733 s.

`COCCNC(=O)c1nnn(Cc2ccc(Cl)cc2)c1-n1cccc1` gave an RP-LC retention time of 890 s.

Work on `Brc1cccc(-c2nc3ccccn3c2Nc2ccc3c(c2)OCCO3)c1` yielded an RP-LC retention time of 714 s.

In the case of `O=C(O)c1cnc(NCCc2cccs2)nc1-c1ccccn1`, the RP-LC retention time is reported as 765 s.

With `CCOC(=O)CNC(=O)CN(C(=O)N1CCN(C)CC1)S(=O)(=O)c1ccc(C)cc1` the RP-LC retention time was 556 s.

`Cc1nc(NC2CCCCC2)sc1C(=O)Nc1ccc(F)cc1F` gave an RP-LC retention time of 855 s.

Work on `Cc1ccn2cc(C(=O)NCc3cc(F)cc(F)c3)nc2c1` yielded an RP-LC retention time of 678 s.

With `Cc1cc(-c2nnc(-c3ccccc3)o2)c(C)n1CC(=O)NCc1ccc(F)cc1F` the RP-LC retention time was 934 s.

Work on `CCCN1CCN(c2ccc(-c3nc(-c4cccc(F)c4)no3)cn2)CC1` yielded an RP-LC retention time of 739 s.

Work on `Cc1cccc(NC(=O)N2CCC(N3CCN(Cc4ccccc4)C(=O)C3=O)CC2)c1C` yielded an RP-LC retention time of 730 s.

With `Cc1[nH]c2ccc(-c3nnc(SCC(=O)NCCc4nc5ccccc5[nH]4)o3)cc2c1C` the RP-LC retention time was 667 s.

Work on `CC1CCCCN1S(=O)(=O)c1ccc2c(c1)CCC(=O)N2CC(=O)NCc1ccc(F)cc1` (centres undefined) yielded an RP-LC retention time of 855 s.

With `O=C(NCc1cccc(F)c1)c1cn2cc(Cl)ccc2n1` the RP-LC retention time was 799 s.

`COc1ccc(-c2cn3cccnc3n2)cc1NS(=O)(=O)c1ccc(Br)cc1` gave an RP-LC retention time of 721 s.

`O=C(NCc1ccc(F)c(Cl)c1)c1csc(C(=O)NC2CC2)n1` showed an RP-LC retention time of 828 s.

In the case of `O=C1NC2(CCN(C(=O)c3ccc4ccccc4c3)CC2)N=C1c1ccccc1`, the RP-LC retention time is reported as 859 s.

In the case of `CC1=C(c2ccc(F)cc2)S(=O)(=O)N=C1N1CCC(C(=O)NC(C)C)CC1`, the RP-LC retention time is reported as 741 s.

Compound `Cc1nnc(N2CCCC(C(=O)NCc3cccs3)C2)c2nn(-c3ccccc3)c(C)c12` (centres undefined) has an RP-LC retention time of 702 s.

In the case of `CCCc1ccc(S(=O)(=O)NCc2c(-c3ccccc3)nc3sc(C)nn23)cc1`, the RP-LC retention time is reported as 1030 s.

With `O=C(NCC(=O)N1CCc2ccccc21)Nc1ccccc1C(F)(F)F` the RP-LC retention time was 890 s.

`CN(CC1(C)CCOCC1)C(=O)COc1ccccc1` gave an RP-LC retention time of 742 s.

In the case of `Cc1nc2cc(-c3noc(-c4ccc(C(F)(F)F)cc4)n3)ccc2o1`, the RP-LC retention time is reported as 1210 s.
